Test results taken from patent publication US20190092720A1, “FUNCTIONALIZED BENZAMIDE DERIVATIVES AS ANTIVIRAL AGENTS AGAINST HBV INFECTION” (BARUCH S. BLUMBERG INSTITUTE, priority 2012, published 2019).
pEC50: −log10 of the molar value.

Columns and labels:
[1] = tested on: HBV replication in HepDES19 cells; experiment: Antiviral activity in HepDES19 cells (core-associated HBV DNA, Southern blot); format: cell-based, Hepatitis B virus (HBV); conditions: Hepatitis B virus, HepDES19, 144 h, concentration that reduces core-associated HBV DNA by 50%; 6 days; serial dilution 10 μM to 0.018 μM
Text: Determination of antiviral activity of compounds of the disclosure, as presented in Table 1, in human hepatoma-derived cell lines: To further confirm the antiviral activity of the compounds of the disclosure against HBV in human hepatocyte-derived cells, HepDES19 cells, a human hepatoma cell line supporting HBV replication in a tetracycline inducible manner (Guo et al., 2007), seeded into 12-well plates at a density of 5×10^5 cells per well and cultured in DMEM/F12 media with 10% fetal bovine serum and 1 μg/ml tetracycline. Two days after seeding, the cells were mock-treated or treated with a serial dilution of compounds of the disclosure, ranging from 10 μM to 0.018 μM, for 6 days in the absence of tetracycline. Upon the completion of treatment, cells were lysed by adding into each well of the 12-well plates 0.5 ml of lysis buffer containing 10 mM Tris-HCl (pH 8.0), 1 mM EDTA, 1% NP40 and 2% sucrose and incubating at 37° C. for 10 minutes. Cell debris and nuclei were removed by centrifugation and the supernatant was mixed with 130 μl of 35% polyethylene glycol (PEG) 8000 containing 1.5 M NaCl. After 1 hour incubation in ice, viral nucleocapsids were pelleted by centrifugation at 6,000×g for 5 min at 4° C., followed by 1 hour digestion at 37° C. in 400 μl of digestion buffer containing 0.5 mg/ml pronase (Calbiochem), 0.5% SDS, 150 mM NaCl, 25 mM Tris-HCl (pH 8.0) and 10 mM EDTA. The digestion mixture was extracted twice with phenol and DNA was precipitated with ethanol, dissolved in TE buffer (10 mM Tris-HCl, pH 8.0; 0.1 mM EDTA). One half of the DNA sample from each well was resolved by electrophoresis into a 1.5% agarose gel. The gel was then subjected to denaturation in a solution containing 0.5 M NaOH and 1.5 M NaCl, followed by neutralization in a buffer containing 1 M Tris-HCl (pH7.4) and 1.5 M NaCl. DNA was then blotted onto Hybond-XL membrane (GE Health care) in 20×SSC buffer. The amounts of cytoplasmic HBV core-associated HBV DNA were determined by Southern blot hybridization and the antiviral efficacy of a compound was expressed as its concentration that reduce the amount of HBV DNA by 50% (EC50) or 90% (EC90).

encapsidated pgRNA = experiment: Encapsidated pgRNA by Northern blot in AML12HBV10 cells; format: cell-based, Hepatitis B virus (HBV); conditions: 2 days, FIG. 1 panel C
Procedure: FIG. 1. Antiviral mechanism of the compounds of the present invention. AML12HBV10 cells were left untreated (NT) or treated with the indicated concentrations of the compounds of the disclosure Compound 6 and Compound 19, respectively, for 2 days. Bay-4109 (3 µM) or AT-61 (25 µM) served as positive controls. (A) Intracellular viral RNA was determined by Northern blot hybridization. Ribosomal RNA served as a loading control. (B) The total amounts of nucleocapsids were determined by a particle gel assay. (C) Encapsidated pgRNA were extracted and measured by Northern blot. (D) Nucleocapsid-associated HBV DNA was quantified by alkaline-treatment of nucleocapsids on the membrane following the particle gel assay and hybridized with a HBV-specific riboprobe. (E) HBV DNA replication intermediates were extracted and determined by Southern blot hybridizations.
Determination of encapsidated pgRNA: AML12HBV10 cells were lysed by addition of 600 μl of lysis buffer (50 mM Tris-HCl [pH 7.5], 1 mM EDTA, 150 mM NaCl, 1% NP-40) into each well of 12-well plates. The nuclei were removed by centrifugation at 5,000 g for 10 minutes. One-half of the sample was mixed with 6 U of micrococcal nuclease (Pharmacia) and 15 μl of 100 mM CaCl2 and incubated for 15 minutes at 37° C. to digest free nucleic acids. The reaction was stopped with 6 μl of 0.5 M EDTA, and capsids were precipitated by adding 125 μl of 35% polyethylene glycol 8000 in 1.75 M NaCl to the reaction and incubating in ice for 30 minutes, followed by centrifugation at 6,000 g for 10 minutes at 4° C. Pellets were re-suspended in 50 μl of TNE buffer (10 mM Tris-HCl [pH 8], 100 mM NaCl, 1 mM EDTA). pgRNA was extracted by the addition of 1 ml of Trizol reagent. The encapsidated pgRNA were electrophoresed through a 2.2 M formaldehyde-1% agarose gel, transferred to a nylon membrane, and immobilized by UV cross-linking (Stratagene). Hybridization was performed with an alpha-^32P-UTP labeled riboprobe specific for plus strand of HBV genome.

For `O=C(Nc1cccc(Cl)c1)c1scc2c1OCCO2` [Entry 6], the pEC50 [1] was 4.87 and the “level of encapsidated pgRNA” value (encapsidated pgRNA) was “dose-dependently reduced”.
